Measured values as given in publication PMC5039532, “Design and Synthesis of Analogues of Marine Natural Product Galaxamide, an N-methylated Cyclic Pentapeptide, as Potential Anti-Tumor Agent in Vitro” (Marine Drugs, 2016).
In brackets after ≈: the same amount, converted by molar mass. Where a SMILES comes first, the peptide text is derived from it. [ ]: non-standard residue; d: D form. NMeL = CN[C@@H](CC(C)C)C(=O)O

How the values were obtained:
SMMC-7721 cells [1] = test: Cell cycle analysis by PI staining and flow cytometry; assay type: cell-based, human; conditions: 4, 8 and 16 μg/mL, 48 h
Protocol: SMMC-7721 cells with the density of about 1.5 × 10^5 were incubated with galaxamide and representative analogues (4, 8, 16 μg/mL) for 48 h. Afterwards, collected cells were washed twice with PBS and centrifugation (1000 rpm, 5 min), then fixed using 70% ethanol for 12 h at 4 °C. Ethanol was removed by centrifugation (2000 rpm, 5 min), and the cells were washed twice with PBS. Cells were then resuspended in […] PI and kept at 37 °C for 15 min. The cell cycle was analyzed by flow cytometry measuring the amount of PI-labeled DNA in fixed cells.

SMMC-7721 cells [2] = test: Cell morphological observation, Hoechst33342 staining; assay type: cell-based, human; conditions: 4, 8 and 16 μg/mL, 48 h, fluorescence microscopy
Protocol: Exponentially growing SMMC-7721 cells (1 × 10^5 cells/mL) were incubated for 48 h with 4, 8, 16 μg/mL of galaxamide and representative analogues. Apoptotic nuclear morphology was visualized by the Hoechsst33342 staining technique. Cells were fixed with 3.7% of paraformaldehyde for 10 min at room temperature and washed three times with PBS. After fixation, cells were stained using Hoechsst33342 (10 μg/mL) and incubated in the darkness for 10 min. After washing three times with PBS, cells were visualized using fluorescence microscope.

SMMC-7721 cells [3] = test: Cell apoptotic analysis, annexin V/PI staining, flow cytometry; assay type: cell-based, human; conditions: 4, 8 and 16 μg/mL, 48 h, annexin V/PI double staining
Protocol: The apoptotic cells were quantified using an Annexin V-FITC (Sigma-Aldrich, St. Louis, MO, USA) cell apoptosis assay kit according to instruction provided with kit. In brief, about 1.5 × 10^5 cells were plated in 6-well plates and treated with galaxamide and representative analogues (4, 8, 16 μg/mL) for 48 h. The cells were resuspended in […] binding buffer. Afterward, […] annexin V-fluorescein isothiocyanate (FITC) was added and then incubated in darkness at room temperature for 10 min. The cells were again resuspended in […] binding buffer and stained with […] PI. The prepared cells were then analyzed using a flow cytometry (Coulter Epics Elite, Miami, FL, USA). The cells in the FITC-positive and PI-negative fraction were regarded as apoptotic cells.

[4] = tested on: hepatocellular carcinoma SMMC-7721 cells; assay type: cell-based, human; conditions: 48 h
Protocol: (§1) Lung cancer A549, drug-resistant lung cancer A549-DPP, human hepatocellular carcinoma HepG2 and hepatocellular carcinoma SMMC-7721 cells obtained from the China cell bank of the Institute of Biochemistry and were cultured in DMEM culture medium (DMEM, Corning, NY, USA) containing 10% fetal bovine serum (FBS, Hyclone, Logan, UT, USA), 1% penicillin-streptomycin and an antifungal agent in a 5% CO2 humidified atmosphere at 37 °C. The culture medium was replaced once in a day. Trypsin digestion method was adopted for cell propagation. Upon reaching 80%–90% confluence, the cells were rinsed twice with PBS. A certain amount of 0.25% trypsin digestion solution was then added and maintained for 3–5 min at 37 °C. Afterward, DMEM culture medium containing 10% fetal bovine serum was added to terminate the digestion. The cells were then blown well to form single cell suspensions.
(§2) The cell viability was determined by measuring the ability of cells to transform MTT (Genview, Houston, TX, USA) to a purple formazan dye. The cells were seeded in 96-well tissue culture plates at 2.5 × 10^3 cells/well for 24 h. The cells were then incubated with galaxamide and its analogues for 48 h. After incubation, 20 μL/well of MTT solution (5 mg/mL phosphate buffered saline) were added and incubated for 5 h. The medium was aspirated and replaced with 100 μL/well of DMSO to dissolve the formazan salt. The color intensity of the formazan solution, which reflects the cell growth condition, was measured at 570 nm using a microplate spectrophotometer (SpectroAma™ 250, Winooski, VT, USA).

[5] = tested on: Lung cancer cell line A549; assay type: cell-based, human; conditions: 48 h
Protocol: as §1, §2

[6] = tested on: drug-resistant lung cancer cell line A549/DPP; assay type: cell-based, human; conditions: 48 h
Protocol: as §1, §2

[7] = tested on: human hepatocellular carcinoma HepG2; assay type: cell-based; conditions: 48 h
Protocol: as §1, §2

Structure (SMILES)	cell-cycle arrest (in words) (SMMC-7721 cells [1])	morphological changes (in words) (SMMC-7721 cells [2])	induction of apoptosis (in words) (SMMC-7721 cells [3])	IC50 Value SMMC-7721 [4] [µg/mL]	IC50 Value A549 [5] [µg/mL]	IC50 Value A549-DPP [6] [µg/mL]	IC50 Value HepG2 [7] [µg/mL]
CC(C)C[C@@H]1NC(=O)[C@H](CC(C)C)N(C)C(=O)[C@H](CC(C)C)NC(=O)[C@H](CC(C)C)N(C)C(=O)[C@H](CC(C)C)NC1=O [Galaxamide, galaxamide] (cyclo(LL[NMeL]L[NMeL]))	arresting the cell cycle in the G0/G1 phase	resulted in cell detachment from cell culture plates	–	–	–	–	–
CC(C)C[C@@H]1NC(=O)[C@H](CC(C)C)NC(=O)[C@@H](Cc2ccccc2)NC(=O)[C@H](CC(C)C)N(C)C(=O)[C@@H](CC(C)C)NC1=O [Compound 22, cyclo(D-Phe-Leu-Leu-D-Leu-N-Me-Leu)]	arresting the cell cycle in the G0/G1 phase	resulted in cell detachment from cell culture plates	induced SMMC-7721 cell apoptosis in dose-dependent manner	1.44 (≈ 2.35 µM)	9.4 (≈ 15.3 µM)	12.22 (≈ 19.9 µM)	6.41 (≈ 10.4 µM)
CC(C)C[C@@H]1NC(=O)[C@H](Cc2ccccc2)NC(=O)[C@@H](CC(C)C)N(C)C(=O)[C@H](CC(C)C)NC(=O)[C@H](CC(C)C)NC1=O [Compound 24, cyclo(Phe-Leu-Leu-Leu-D-N-Me-Leu)]	–	–	–	7.04 (≈ 11.5 µM)	3.45 (≈ 5.62 µM)	9.26 (≈ 15.1 µM)	7.92 (≈ 12.9 µM)
CC(C)C[C@H]1NC(=O)[C@@H](Cc2ccccc2)NC(=O)[C@H](CC(C)C)N(C)C(=O)[C@@H](CC(C)C)NC(=O)[C@H](CC(C)C)N(C)C1=O [Compound 5, cyclo(D-Phe-D-Leu-N-Me-Leu-D-Leu-N-Me-Leu)]	–	–	–	2.74 (≈ 4.36 µM)	6.89 (≈ 11 µM)	23.61 (≈ 37.6 µM)	5.23 (≈ 8.33 µM)
